Measured values reported in patent US20260007641A1, “PHARMACEUTICAL COMPOSITION FOR TREATING AND RESISTING BLOOD COAGULATION AND USE THEREOF” (CHENGDU SHIBEIKANG BIOMEDICAL TECHNOLOGY CO., LTD., priority 2022, published 2026).

Assays:
[1] = Solubility and BCS classification of compound A; assay type: physicochemical
[2] = from Literature 1; cited from earlier work

Row | SMILES | BCS (Biopharmaceutics Classification System) class [1] | solubility in acetone ([1]; acetone) | solubility in ethanol ([1]; ethanol) | solubility in methanol ([1]; methanol) | solubility in toluene ([1]; toluene) | solubility in water ([1]; water) | share of clopidogrel metabolized to compound A after oral intake [2] [%]
1 | COC(=O)[C@H](c1ccccc1Cl)N1CC[C@@H]2SC(=O)C=C2C1 [Compound A, methyl(S)-2-(2-chlorophenyl)-2-((S)-2-oxo-2,6,7,7a-tetrahydrothiophene [3,2-c]pyridin-5 (4H)-yl)acetate] | low solubility and high permeability | very slightly soluble | slightly soluble | hardly soluble | almost insoluble | very slightly soluble | –
2 | COC(=O)[C@H](c1ccccc1Cl)N1CCc2sccc2C1 [clopidogrel] | – | – | – | – | – | – | 15
